Measurements as given in ChEMBL document CHEMBL1201862, “PubChem BioAssay data set” (2004).
Several values for one entry are separate records, joined by “and”; a condition that tells them apart may be missing. Identical values can stand only once.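 48-hour exposure; five concentrations; linearly interpolated endpoints. GI50 = concentration required for 50% inhibition of growth.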 Activity calls are given as the source filed them. No stated cut-off is given here; in the data, active = GI50 up to about 1.1 µM and inactive = higher.

Assays:
Assay in all cases: NCI-60 cell line screen, 48 h
DLD-1 = tested on: DLD-1
DMS-114 = tested on: DMS-114
DMS-273 = tested on: DMS-273
HOP-18 = tested on: HOP-18
KM-20L2 = tested on: KM-20L2
M19-MEL = tested on: M19-MEL
SNB-78 = tested on: SNB-78
XF498 = tested on: XF498
RXF 631 = tested on: RXF 631

Structure (SMILES)	GI50 (DLD-1)	GI50 (DMS-114)	GI50 (DMS-273)	GI50 (HOP-18)	GI50 (KM-20L2)	GI50 (M19-MEL)	GI50 (SNB-78)	GI50 (XF498)	GI50 (RXF 631)
Cc1c2cnccc2c(C)c2c1c1ccccc1n2CCOC(=O)c1ccccc1	7.69 µM (inactive)	9.51 µM (inactive)	4.86 µM (inactive)	20.7 µM (inactive)	6.44 µM (inactive)	13.9 µM (inactive)	12.2 µM (inactive)	3.27 µM (inactive)	–
O=C1CC(O)(c2ccccc2)C(c2ccccc2)=C1c1ccccc1 (stereo unspecified)	44.2 µM (inactive)	26.2 µM (inactive)	34.6 µM (inactive)	–	41.8 µM (inactive)	29.6 µM (inactive)	73.6 µM (inactive)	24.4 µM (inactive)	–
Cn1cnc([N+](=O)[O-])c1Sc1nnc(-c2cccnc2)n1C	18.8 µM (inactive)	18.9 µM (inactive)	80.2 µM (inactive)	14.6 µM (inactive)	33.9 µM (inactive)	19.1 µM (inactive)	21.4 µM (inactive)	20.4 µM (inactive)	–
COC(=O)NN1C(C)=C(C(=O)OC)C2(CCOC2=O)C1(C)O (stereo unspecified)	> 100 µM (inactive)	> 100 µM (inactive)	> 100 µM (inactive)	> 100 µM (inactive)	> 100 µM (inactive)	–	> 100 µM (inactive)	> 100 µM (inactive)	> 100 µM (inactive)
C=C=C[P+](c1ccccc1)(c1ccccc1)c1ccccc1	5.61 µM (inactive)	8.69 µM (inactive)	27.6 µM (inactive)	46.7 µM (inactive)	–	14.5 µM (inactive)	16.9 µM (inactive)	–	–
CC(C)(CN1CCCCC1)C(=O)/C=C/c1ccc(Cl)c(Cl)c1	1.67 µM (inactive)	1.56 µM (inactive)	1.69 µM (inactive)	1.52 µM (inactive)	–	1.63 µM (inactive)	1.51 µM (inactive)	–	1.72 µM (inactive)
CN(C)[C@@H]1C(O)=C(C(N)=O)C(=O)[C@@]2(O)C(O)=C3C(=O)c4c(O)cccc4C[C@H]3C[C@@H]12	2.66 µM (inactive)	2.52 µM (inactive)	2.17 µM (inactive)	1.79 µM (inactive)	2.19 µM (inactive)	1.68 µM (inactive)	–	–	–
Cc1cccc(C(C)C)c1N1C(=O)C(=O)C(c2nc3ccccc3o2)C(=O)C1=O	39.4 µM (inactive)	24.7 µM (inactive)	93.8 µM (inactive)	> 100 µM (inactive)	35.4 µM (inactive)	55.3 µM (inactive)	> 100 µM (inactive)	21.1 µM (inactive)	27.2 µM (inactive)
COc1cc2c(cc1OC)C(=O)Cc1ccc(OC)c(OC)c1CN(C)CC2	> 100 µM (inactive)	> 100 µM (inactive)	> 100 µM (inactive)	32.4 µM (inactive)	> 100 µM (inactive)	> 100 µM (inactive)	> 100 µM (inactive)	24.5 µM (inactive)	> 100 µM (inactive)
CCOC(=O)[C@H]1Nc2ccccc2C2c3ccccc3CC21 (stereo partly specified)	51.4 µM (inactive)	88.1 µM (inactive)	74 µM (inactive)	–	39.4 µM (inactive)	74.3 µM (inactive)	> 100 µM (inactive)	> 100 µM (inactive)	> 100 µM (inactive)
Cc1nc2ccncc2[nH]1	> 100 µM (inactive)	> 100 µM (inactive)	> 100 µM (inactive)	–	> 100 µM (inactive)	> 100 µM (inactive)	–	58.6 µM (inactive)	> 100 µM (inactive)
O=C1OC(CC(=O)c2ccc(Cl)cc2)C(Cl)=C1Cl (stereo unspecified)	52.6 µM (inactive)	> 100 µM (inactive)	> 100 µM (inactive)	> 100 µM (inactive)	> 100 µM (inactive)	> 100 µM (inactive)	–	> 100 µM (inactive)	–
CSc1nc2c(nc(C)c(=O)n2C2OCC(OC(C)=O)C(OC(C)=O)C2OC(C)=O)c(=O)[nH]1 (stereo unspecified)	> 100 µM (inactive)	> 100 µM (inactive)	> 100 µM (inactive)	–	> 100 µM (inactive)	> 100 µM (inactive)	–	> 100 µM (inactive)	–
O=C(c1ccc(NCN2C(=O)CCC2=O)cc1)c1ccc(NCN2C(=O)CCC2=O)cc1	> 100 µM (inactive)	–	49.8 µM (inactive)	–	> 100 µM (inactive)	> 100 µM (inactive)	> 100 µM (inactive)	> 100 µM (inactive)	> 100 µM (inactive)
CCN(CC)c1ccc2cc3ccc(N(CC)CC)cc3[o+]c2c1	1.39 µM (inactive)	0.687 µM (active)	1.12 µM (active)	–	1.82 µM (inactive)	–	2.43 µM (inactive)	1.23 µM (inactive)	–
NC(CCCC(N)P(=O)(O)O)P(=O)(O)O (stereo unspecified)	> 100 µM (inactive)	> 100 µM (inactive)	> 100 µM (inactive)	> 100 µM (inactive)	–	> 100 µM (inactive)	> 100 µM (inactive)	–	> 100 µM (inactive)

Structure (SMILES)	GI50 (DLD-1)	GI50 (DMS-114)	GI50 (DMS-273)	GI50 (HOP-18)	GI50 (KM-20L2)	GI50 (M19-MEL)	GI50 (SNB-78)	GI50 (XF498)	GI50 (RXF 631)
COc1ccccc1/C=C1\C(=O)N(C(=O)Cc2ccccc2)N=C1C	> 100 µM (inactive)	> 100 µM (inactive)	> 100 µM (inactive)	13.1 µM (inactive)	–	> 100 µM (inactive)	> 100 µM (inactive)	> 100 µM (inactive)	–
Cc1nc(C(N)=S)sc1C(=O)CC(=O)C(=O)Nc1ccccc1[N+](=O)[O-]	> 100 µM (inactive)	> 100 µM (inactive)	> 100 µM (inactive)	> 100 µM (inactive)	> 100 µM (inactive)	> 100 µM (inactive)	> 100 µM (inactive)	–	> 100 µM (inactive)
COc1ccc(C2=NN(c3ccccc3)C[N+](c3ccc(OC)cc3)=N2)cc1	28.8 µM (inactive)	24.2 µM (inactive)	24.5 µM (inactive)	–	29.6 µM (inactive)	30.5 µM (inactive)	28.2 µM (inactive)	18.8 µM (inactive)	–
CC12CCC(=O)N1[C@@H](c1ccccc1)[C@@H](c1ccccc1)O2 (stereo partly specified)	44 µM (inactive)	> 100 µM (inactive)	–	–	> 100 µM (inactive)	> 100 µM (inactive)	–	> 100 µM (inactive)	–
O=C(Cc1ccccc1)NN1C(=O)C(Cl)C1c1ccc([N+](=O)[O-])cc1 (stereo unspecified)	> 100 µM (inactive)	28.6 µM (inactive)	> 100 µM (inactive)	> 100 µM (inactive)	> 100 µM (inactive)	> 100 µM (inactive)	45.9 µM (inactive)	> 100 µM (inactive)	–
C/C=C(\NC(=O)C(CCCCN)NC(=O)C(C)NC(=O)C1CSC(C)C(NC(=O)C2CSCC(NC(=O)C(C)NC(=O)C(N)C(C)CC)C(=O)NC(CCCCN)C(=O)NC(Cc3ccccc3)C(=O)NC(CC(C)C)C(=O)N2)C(=O)N2CCCC2C(=O)NCC(=O)N1)C(=O)NCC(=O)NC1CSCC2NC(=O)C(Cc3ccc(O)cc3)NC(=O)C(CSC=CNC2=O)NC(=O)C(CC(N)=O)NC(=O)C(Cc2ccccc2)NC1=O (stereo unspecified)	> 100 µM (inactive)	> 100 µM (inactive)	57.1 µM (inactive)	–	–	67.8 µM (inactive)	> 100 µM (inactive)	> 100 µM (inactive)	–
Nc1nnc(N)n1N	> 100 µM (inactive)	> 100 µM (inactive)	> 100 µM (inactive)	–	–	> 100 µM (inactive)	> 100 µM (inactive)	28.8 µM (inactive)	> 100 µM (inactive)
COc1ccc(/C(=N/NC(N)=O)C2(O)C(=O)Nc3ccc([N+](=O)[O-])cc32)cc1 (stereo unspecified)	21.3 µM (inactive)	19.7 µM (inactive)	18.3 µM (inactive)	–	22.3 µM (inactive)	20.7 µM (inactive)	17.8 µM (inactive)	16.5 µM (inactive)	–
COC1C(CN[N+](=O)CC2OC3OC(C)(C)OC3C2OC)OC2OC(C)(C)OC21 (stereo unspecified)	> 100 µM (inactive)	> 100 µM (inactive)	> 100 µM (inactive)	> 100 µM (inactive)	–	> 100 µM (inactive)	> 100 µM (inactive)	–	> 100 µM (inactive)
Cc1c(C(=O)CC(=O)C(=O)Nc2ccccc2C(F)(F)F)[n+]([O-])c2ccccc2[n+]1[O-]	–	11.5 µM (inactive)	25.8 µM (inactive)	2.2 µM (inactive)	33.7 µM (inactive)	–	47.2 µM (inactive)	9.44 µM (inactive)	–
CCC(=O)OCOc1ccc(/C=C2\CCC(CN(C)C)C2=O)cc1 (stereo unspecified)	2.19 µM (inactive)	18.3 µM (inactive)	3.97 µM (inactive)	15.4 µM (inactive)	13.1 µM (inactive)	4.47 µM (inactive)	9.68 µM (inactive)	2.14 µM (inactive)	8.34 µM (inactive)
COC(=O)CCC(NC(=S)N/N=C/c1ccccn1)C(=O)OC (stereo unspecified)	> 100 µM (inactive)	> 100 µM (inactive)	–	> 100 µM (inactive)	> 100 µM (inactive)	> 100 µM (inactive)	> 100 µM (inactive)	> 100 µM (inactive)	> 100 µM (inactive)
CCOC(=O)Cn1c(=O)n(C)c(=O)c2[nH]cnc21	> 100 µM (inactive)	> 100 µM (inactive)	> 100 µM (inactive)	–	–	> 100 µM (inactive)	> 100 µM (inactive)	> 100 µM (inactive)	–
N#Cc1cccc(N2C(=O)c3ccc(C(=O)c4ccc5c(c4)C(=O)N(c4cccc(C#N)c4)C5=O)cc3C2=O)c1	> 100 µM (inactive)	> 100 µM (inactive)	> 100 µM (inactive)	> 100 µM (inactive)	> 100 µM (inactive)	> 100 µM (inactive)	> 100 µM (inactive)	> 100 µM (inactive)	–
O=c1c(Cl)c(Cl)cnn1-c1ccccc1	1.44 µM (inactive) and 2.35 µM (inactive)	2.33 µM (inactive) and 1.56 µM (inactive)	–	8.53 µM (inactive) and 5.19 µM (inactive)	–	3.05 µM (inactive) and 3.13 µM (inactive)	7.33 µM (inactive)	2.46 µM (inactive)	–
